How the values were obtained:
Assay in all cases: relative viability (nuclei count vs DMSO), 5 days (fraction); higher = more cells survive
BAY61-3606 + Pictilisib = compound: COC1=C(C=C(C=C1)C2=CC3=NC=CN3C(=N2)NC4=C(C=CC=N4)C(=O)N)OC [BAY61-3606] + CS(=O)(=O)N1CCN(Cc2cc3nc(-c4cccc5[nH]ncc45)nc(N4CCOCC4)c3s2)CC1 [Pictilisib] (partner 1 µM)
How it was run: (§1)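 Relative viability divides the nuclei count in treated wells by that in vehicle wells. Lung cancer cell lines were seeded in 1536-well plates, dosed by pin tool the next day, and fixed and stained after 5 days in one step with final 0.05% Triton X-100, 1% formaldehyde and 1 ug/ml Hoechst. Dosing was a single drug or a fixed anchor-drug dose plus five library-drug doses (not always all listed) in √10 steps, and values are medians of duplicate plates imaged at 4×.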

Doxorubicin + Phenformin = compound: COc1cccc2c1C(=O)c1c(O)c3c(c(O)c1C2=O)C[C@@](O)(C(=O)CO)C[C@@H]3O[C@H]1C[C@H](N)[C@H](O)[C@H](C)O1 [Doxorubicin] + N=C(N)NC(=N)NCCc1ccccc1 [Phenformin] (partner 250 µM)
How it was run: as §1

BAY61-3606 + Trametinib = compound: COC1=C(C=C(C=C1)C2=CC3=NC=CN3C(=N2)NC4=C(C=CC=N4)C(=O)N)OC [BAY61-3606] + CC(=O)Nc1cccc(-n2c(=O)n(C3CC3)c(=O)c3c(Nc4ccc(I)cc4F)n(C)c(=O)c(C)c32)c1 [Trametinib] (partner 0.02 µM)
How it was run: as §1

BAY61-3606 + AZD7762 = compound: COC1=C(C=C(C=C1)C2=CC3=NC=CN3C(=N2)NC4=C(C=CC=N4)C(=O)N)OC [BAY61-3606] + NC(=O)Nc1cc(-c2cccc(F)c2)sc1C(=O)N[C@H]1CCCNC1 [AZD7762] (partner 0.2 µM)
How it was run: as §1

| Cell Line | relative viability (BAY61-3606 + Pictilisib; first compound 0.02 µM) | relative viability (BAY61-3606 + Pictilisib; first compound 0.06325 µM) | relative viability (BAY61-3606 + Pictilisib; first compound 0.2 µM) | relative viability (BAY61-3606 + Pictilisib; first compound 0.6325 µM) | relative viability (BAY61-3606 + Pictilisib; first compound 2 µM) | relative viability (Doxorubicin + Phenformin; first compound 0.001 µM) | relative viability (Doxorubicin + Phenformin; first compound 0.003162 µM) | relative viability (Doxorubicin + Phenformin; first compound 0.01 µM) | relative viability (Doxorubicin + Phenformin; first compound 0.03162 µM) | relative viability (Doxorubicin + Phenformin; first compound 0.1 µM) | relative viability (BAY61-3606 + Trametinib; first compound 0.02 µM) | relative viability (BAY61-3606 + Trametinib; first compound 0.06325 µM) | relative viability (BAY61-3606 + Trametinib; first compound 0.2 µM) | relative viability (BAY61-3606 + Trametinib; first compound 0.6325 µM) | relative viability (BAY61-3606 + Trametinib; first compound 2 µM) | relative viability (BAY61-3606 + AZD7762; first compound 0.02 µM) | relative viability (BAY61-3606 + AZD7762; first compound 0.06325 µM) | relative viability (BAY61-3606 + AZD7762; first compound 0.2 µM) | relative viability (BAY61-3606 + AZD7762; first compound 0.6325 µM) | relative viability (BAY61-3606 + AZD7762; first compound 2 µM) |
| --- | --- | --- | --- | --- | --- | --- | --- | --- | --- | --- | --- | --- | --- | --- | --- | --- | --- | --- | --- | --- |
| SW 1573 | 0.476 | 0.44 | 0.464 | 0.514 | 0.367 | 0.337 | 0.355 | 0.216 | 0.111 | 0.0738 | 0.566 | 0.668 | 0.533 | 0.578 | 0.341 | – | – | – | – | – |
| NCI-H1792 | 0.293 | 0.176 | 0.328 | 0.363 | 0.303 | – | 0.299 | 0.262 | 0.337 | 0.19 | 0.574 | 0.361 | 0.353 | 0.412 | 0.396 | 0.783 | 0.538 | 0.802 | 0.62 | 0.455 |
| HCC-827 | 1.03 | 0.893 | 1.15 | 1.09 | 0.915 | 0.429 | 0.409 | 0.401 | 0.401 | 0.408 | 0.511 | 0.585 | 0.539 | 0.583 | 0.608 | 0.219 | 0.176 | 0.211 | 0.215 | 0.207 |
| LC-2-ad | 0.405 | 0.429 | 0.29 | 0.468 | 0.235 | 0.498 | 0.516 | 0.562 | 0.289 | 0.304 | 0.911 | 0.961 | 0.979 | 0.942 | 0.902 | 0.876 | 0.887 | 0.778 | 0.857 | 0.849 |
